Measured values taken from PubChem BioAssay AID256 (DTP/NCI, 2004).
Where “and” joins values, the source holds several entries; their conditions need not be identical. Equal values may be shown once. Toxic doses and inconclusive results are not listed.

System: CD2F1 mice, L1210 leukemia ip, survival T/C
Test: NCI In Vivo Anticancer Drug Screen. Data for tumor model L1210 Leukemia (intraperitoneal) in CD2F1 (CDF1) mice
Conditions: higher = longer survival
Outline: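 Vehicle-treated tumor-bearing mice served as controls (C) for compound-treated mice (T). Reported figure is T divided by C.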

[1] = endpoint: mean survival time, dose: 75.0 mg/kg/injection, schedule: Q01DX001 (ip), vehicle: saline
[2] = endpoint: mean survival time, dose: 150.0 mg/kg/injection, schedule: Q01DX001 (ip), vehicle: saline
[3] = endpoint: mean survival time, dose: 300.0 mg/kg/injection, schedule: Q01DX001 (ip), vehicle: saline
[4] = endpoint: mean survival time, dose: 25.0 mg/kg/injection, schedule: Q01DX009 (ip), vehicle: saline
[5] = endpoint: mean survival time, dose: 50.0 mg/kg/injection, schedule: Q01DX009 (ip), vehicle: saline
[6] = endpoint: mean survival time, dose: 100.0 mg/kg/injection, schedule: Q01DX001 (ip), vehicle: saline with Tween-80
[7] = endpoint: mean survival time, dose: 200.0 mg/kg/injection, schedule: Q01DX001 (ip), vehicle: saline with Tween-80
[8] = endpoint: mean survival time, dose: 400.0 mg/kg/injection, schedule: Q01DX001 (ip), vehicle: saline with Tween-80
[9] = endpoint: mean survival time, dose: 100.0 mg/kg/injection, schedule: Q04DX002 (ip), vehicle: saline with Tween-80
[10] = endpoint: mean survival time, dose: 400.0 mg/kg/injection, schedule: Q04DX002 (ip), vehicle: saline with Tween-80
[11] = endpoint: mean survival time, dose: 100.0 mg/kg/injection, schedule: Q01DX009 (ip), vehicle: saline
[12] = endpoint: mean survival time, dose: 200.0 mg/kg/injection, schedule: Q01DX009 (ip), vehicle: saline
[13] = endpoint: mean survival time, dose: 100.0 mg/kg/injection, schedule: Q04DX003 (ip), vehicle: saline with Tween-80
[14] = endpoint: mean survival time, dose: 200.0 mg/kg/injection, schedule: Q04DX003 (ip), vehicle: saline with Tween-80
[15] = endpoint: mean survival time, dose: 400.0 mg/kg/injection, schedule: Q04DX003 (ip), vehicle: saline with Tween-80

C(=C\c1ccccc1)/C[P+](c1ccccc1)(c1ccccc1)c1ccccc1
T/C (endpoint: mean survival time, dose: 5.0 mg/kg/injection, schedule: Q01DX009 (ip), vehicle: saline with Tween-80): 98 % of control | T/C (endpoint: mean survival time, dose: 5.0 mg/kg/injection, schedule: Q04DX003 (ip), vehicle: saline with Tween-80): 100 % of control | T/C (endpoint: mean survival time, dose: 10.0 mg/kg/injection, schedule: Q01DX009 (ip), vehicle: saline with Tween-80): 100 % of control | T/C (endpoint: mean survival time, dose: 10.0 mg/kg/injection, schedule: Q04DX003 (ip), vehicle: saline with Tween-80): 100 % of control | T/C (endpoint: mean survival time, dose: 20.0 mg/kg/injection, schedule: Q01DX009 (ip), vehicle: saline with Tween-80): 94 % of control | T/C (endpoint: mean survival time, dose: 20.0 mg/kg/injection, schedule: Q04DX003 (ip), vehicle: saline with Tween-80): 97 % of control

CC1CC2CCC1C2O (stereo not drawn)
T/C [1]: 98 % of control | T/C [2]: 91 % of control | T/C [3]: 87 % of control

CC(C)(C)NC[Si](C)(C)C
T/C [4]: 94 % of control | T/C [5]: 101 % of control

COCC1OC(OC)C(OC(=O)c2ccccc2)C(OC(=O)c2ccccc2)C1OC (stereo not drawn)
T/C [6]: 90 % of control | T/C [7]: 91 % of control | T/C [8]: 90 % of control

COc1ccc2c(c1)CCC1C2CCC2(C)C(=O)NC(=O)N12 (stereo not drawn)
T/C (endpoint: mean survival time, dose: 25.0 mg/kg/injection, schedule: Q04DX002 (ip), vehicle: saline with Tween-80): 93 % of control | T/C (endpoint: mean survival time, dose: 50.0 mg/kg/injection, schedule: Q04DX002 (ip), vehicle: saline with Tween-80): 86 % of control | T/C [6]: 86 % of control | T/C [9]: 86 % of control and 90 % of control | T/C [8]: 93 % of control | T/C [10]: 86 % of control

O=NN(CS(=O)(=O)O)c1ccccc1
T/C [5]: 101 % of control | T/C [11]: 107 % of control | T/C [12]: 95 % of control

COc1ccc2c(c1[N+](=O)[O-])CC[C@@H]1[C@@H]2CC[C@]2(C)C(=O)CC[C@@H]12
T/C (endpoint: median survival time, dose: 50.0 mg/kg/injection, schedule: Q01DX009 (ip), vehicle: saline with Tween-80): 103 % of control | T/C (endpoint: median survival time, dose: 100.0 mg/kg/injection, schedule: Q01DX009 (ip), vehicle: saline with Tween-80): 103 % of control | T/C (endpoint: median survival time, dose: 200.0 mg/kg/injection, schedule: Q01DX009 (ip), vehicle: saline with Tween-80): 102 % of control | T/C (endpoint: median survival time, dose: 400.0 mg/kg/injection, schedule: Q01DX009 (ip), vehicle: saline with Tween-80): 103 % of control | T/C (endpoint: median survival time, dose: 800.0 mg/kg/injection, schedule: Q01DX009 (ip), vehicle: saline with Tween-80): 106 % of control

CC(=O)Nc1ncc2ccccc2c1-c1ccc(N(CCCl)CCCl)cc1
T/C (endpoint: mean survival time, dose: 25.0 mg/kg/injection, schedule: Q04DX003 (ip), vehicle: DMSO): 105 % of control | T/C (endpoint: mean survival time, dose: 50.0 mg/kg/injection, schedule: Q04DX003 (ip), vehicle: DMSO): 94 % of control | T/C (endpoint: mean survival time, dose: 50.0 mg/kg/injection, schedule: Q04DX003 (ip), vehicle: Klucel (hydroxypropylcellulose) (HPC)): 95 % of control | T/C (endpoint: mean survival time, dose: 100.0 mg/kg/injection, schedule: Q04DX003 (ip), vehicle: DMSO): 111 % of control | T/C (endpoint: mean survival time, dose: 100.0 mg/kg/injection, schedule: Q04DX003 (ip), vehicle: Klucel (hydroxypropylcellulose) (HPC)): 104 % of control | T/C (endpoint: mean survival time, dose: 100.0 mg/kg/injection, schedule: Q04DX003 (ip), vehicle: saline + alcohol): 92 % of control | T/C (endpoint: mean survival time, dose: 200.0 mg/kg/injection, schedule: Q04DX003 (ip), vehicle: Klucel (hydroxypropylcellulose) (HPC)): 101 % of control | T/C (endpoint: mean survival time, dose: 200.0 mg/kg/injection, schedule: Q04DX003 (ip), vehicle: saline + alcohol): 101 % of control | T/C (endpoint: mean survival time, dose: 400.0 mg/kg/injection, schedule: Q04DX003 (ip), vehicle: DMSO): 150 % of control | T/C (endpoint: mean survival time, dose: 400.0 mg/kg/injection, schedule: Q04DX003 (ip), vehicle: Klucel (hydroxypropylcellulose) (HPC)): 104 % of control | T/C (endpoint: mean survival time, dose: 400.0 mg/kg/injection, schedule: Q04DX003 (ip), vehicle: saline + alcohol): 97 % of control

C[C@]12CC[C@@H]3c4ccc(O)cc4CC[C@H]3[C@@H]1CC[C@@H]2O
T/C (endpoint: mean survival time, dose: 6.25 mg/kg/injection, schedule: Q01DX009 (ip), vehicle: Klucel (hydroxypropylcellulose) (HPC)): 94 % of control | T/C (endpoint: mean survival time, dose: 12.5 mg/kg/injection, schedule: Q01DX009 (ip), vehicle: Klucel (hydroxypropylcellulose) (HPC)): 100 % of control | T/C (endpoint: mean survival time, dose: 25.0 mg/kg/injection, schedule: Q01DX009 (ip), vehicle: Klucel (hydroxypropylcellulose) (HPC)): 97 % of control | T/C (endpoint: mean survival time, dose: 50.0 mg/kg/injection, schedule: Q01DX009 (ip), vehicle: Klucel (hydroxypropylcellulose) (HPC)): 96 % of control | T/C (endpoint: mean survival time, dose: 100.0 mg/kg/injection, schedule: Q01DX009 (ip), vehicle: Klucel (hydroxypropylcellulose) (HPC)): 105 % of control | T/C (endpoint: mean survival time, dose: 200.0 mg/kg/injection, schedule: Q01DX009 (ip), vehicle: Klucel (hydroxypropylcellulose) (HPC)): 96 % of control

CCCCOc1c(OCCCC)c(=O)c1=O
T/C (endpoint: mean survival time, dose: 100.0 mg/kg/injection, schedule: Q01DX001 (ip), vehicle: saline): 108 % of control | T/C (endpoint: mean survival time, dose: 178.0 mg/kg/injection, schedule: Q01DX001 (ip), vehicle: saline): 102 % of control | T/C (endpoint: mean survival time, dose: 200.0 mg/kg/injection, schedule: Q01DX001 (ip), vehicle: saline): 108 % of control | T/C (endpoint: mean survival time, dose: 267.0 mg/kg/injection, schedule: Q01DX001 (ip), vehicle: saline): 96 % of control | T/C (endpoint: mean survival time, dose: 400.0 mg/kg/injection, schedule: Q01DX001 (ip), vehicle: saline): 106 % of control | T/C (endpoint: mean survival time, dose: 600.0 mg/kg/injection, schedule: Q01DX001 (ip), vehicle: saline): 98 % of control

CC(=O)Oc1ccccc1O
T/C (endpoint: median survival time, dose: 12.5 mg/kg/injection, schedule: Q01DX009 (ip), vehicle: saline + Tween-80 + alcohol): 96 % of control and 103 % of control | T/C (endpoint: median survival time, dose: 25.0 mg/kg/injection, schedule: Q01DX009 (ip), vehicle: saline + Tween-80 + alcohol): 101 % of control and 109 % of control

CCOC(=O)C(C)(C)CO
T/C (endpoint: mean survival time, dose: 100.0 mg/kg/injection, schedule: Q01DX009 (ip), vehicle: saline sonified): 93 % of control | T/C (endpoint: mean survival time, dose: 200.0 mg/kg/injection, schedule: Q01DX009 (ip), vehicle: saline sonified): 101 % of control | T/C (endpoint: mean survival time, dose: 400.0 mg/kg/injection, schedule: Q01DX009 (ip), vehicle: saline sonified): 103 % of control | T/C (endpoint: mean survival time, dose: 800.0 mg/kg/injection, schedule: Q01DX009 (ip), vehicle: saline sonified): 90 % of control

C#CC1(OC(=O)Nc2ccc3c(c2)OCO3)CCCCC1
T/C [6]: 92 % of control | T/C [7]: 86 % of control | T/C [8]: 95 % of control

Cc1cn(C2CC(O)C(CO)O2)c(=O)[nH]c1=O (stereo not drawn)
T/C (endpoint: mean survival time, dose: 12.5 mg/kg/injection, schedule: Q01DX009 (ip), vehicle: saline): 95 % of control and 104 % of control | T/C [4]: 91 % of control and 103 % of control | T/C [5]: 91 % of control and 104 % of control | T/C [11]: 98 % of control | T/C [12]: 95 % of control and 103 % of control | T/C (endpoint: mean survival time, dose: 250.0 mg/kg/injection, schedule: Q03HX008 (ip), vehicle: saline): 102 % of control | T/C (endpoint: mean survival time, dose: 400.0 mg/kg/injection, schedule: Q01DX009 (ip), vehicle: saline): 92 % of control | T/C (endpoint: mean survival time, dose: 500.0 mg/kg/injection, schedule: Q03HX008 (ip), vehicle: saline): 110 % of control | T/C (endpoint: mean survival time, dose: 1000.0 mg/kg/injection, schedule: Q03HX008 (ip), vehicle: saline): 102 % of control

O=C1CSC(=S)N1
T/C (endpoint: mean survival time, dose: 100.0 mg/kg/injection, schedule: Q01DX009 (ip), vehicle: saline with Tween-80): 89 % of control | T/C [13]: 105 % of control | T/C (endpoint: mean survival time, dose: 200.0 mg/kg/injection, schedule: Q01DX009 (ip), vehicle: saline with Tween-80): 97 % of control | T/C [14]: 92 % of control | T/C [15]: 94 % of control

COc1ccc2nc(-c3ccc(F)cc3)cc(C(=O)O)c2c1
T/C [13]: 97 % of control | T/C [14]: 101 % of control | T/C [15]: 101 % of control

O=C(CNCc1ccccc1)c1ccccc1
T/C [13]: 94 % of control | T/C [14]: 96 % of control | T/C [15]: 93 % of control

CC(=O)Oc1c(Br)cc2cc(Br)ccc2c1Br
T/C [9]: 90 % of control | T/C (endpoint: mean survival time, dose: 200.0 mg/kg/injection, schedule: Q04DX002 (ip), vehicle: saline with Tween-80): 98 % of control | T/C [10]: 98 % of control

CCC(O)C[As](=O)(O)c1cccc(Cl)c1 (stereo not drawn)
T/C (endpoint: mean survival time, dose: 0.39 mg/kg/injection, schedule: Q01DX009 (ip), vehicle: saline): 95 % of control | T/C (endpoint: mean survival time, dose: 0.78 mg/kg/injection, schedule: Q01DX009 (ip), vehicle: saline): 97 % of control | T/C (endpoint: mean survival time, dose: 1.56 mg/kg/injection, schedule: Q01DX009 (ip), vehicle: saline): 103 % of control | T/C (endpoint: mean survival time, dose: 3.13 mg/kg/injection, schedule: Q01DX009 (ip), vehicle: saline): 114 % of control

N#Cc1ccc(NCCO)cc1
T/C [13]: 89 % of control | T/C [14]: 101 % of control | T/C [15]: 91 % of control

NOCc1ccccc1CON
T/C [1]: 96 % of control | T/C [2]: 100 % of control | T/C [3]: 100 % of control
